In patent US6365582B1, “S-substitute 11β-benzaldoxime-estra-4, 9-diene-carbonic acid thiolesters, method for the production thereof and pharmaceutical preparations containing these compounds” (Jenapharm GmbH & Co. KG, priority 1998, dated 2002):

Legend:
progesterone receptor = target: T1, progesterone receptor (Oryctolagus cuniculus, UniProt P06186); assay: Receptor binding affinity, progesterone receptor (competitive binding, uterus cytosol); settings: Progesterone = 100%; uterus cytosol of estradiol-primed rabbit; tracer 3H-ORG 2058
T1 construct: receptors in the cytosol of animal target organs; from tissue; host or cells: uterus cytosol of the estradiol-primed rabbit
T1 sequence (P06186 1-930): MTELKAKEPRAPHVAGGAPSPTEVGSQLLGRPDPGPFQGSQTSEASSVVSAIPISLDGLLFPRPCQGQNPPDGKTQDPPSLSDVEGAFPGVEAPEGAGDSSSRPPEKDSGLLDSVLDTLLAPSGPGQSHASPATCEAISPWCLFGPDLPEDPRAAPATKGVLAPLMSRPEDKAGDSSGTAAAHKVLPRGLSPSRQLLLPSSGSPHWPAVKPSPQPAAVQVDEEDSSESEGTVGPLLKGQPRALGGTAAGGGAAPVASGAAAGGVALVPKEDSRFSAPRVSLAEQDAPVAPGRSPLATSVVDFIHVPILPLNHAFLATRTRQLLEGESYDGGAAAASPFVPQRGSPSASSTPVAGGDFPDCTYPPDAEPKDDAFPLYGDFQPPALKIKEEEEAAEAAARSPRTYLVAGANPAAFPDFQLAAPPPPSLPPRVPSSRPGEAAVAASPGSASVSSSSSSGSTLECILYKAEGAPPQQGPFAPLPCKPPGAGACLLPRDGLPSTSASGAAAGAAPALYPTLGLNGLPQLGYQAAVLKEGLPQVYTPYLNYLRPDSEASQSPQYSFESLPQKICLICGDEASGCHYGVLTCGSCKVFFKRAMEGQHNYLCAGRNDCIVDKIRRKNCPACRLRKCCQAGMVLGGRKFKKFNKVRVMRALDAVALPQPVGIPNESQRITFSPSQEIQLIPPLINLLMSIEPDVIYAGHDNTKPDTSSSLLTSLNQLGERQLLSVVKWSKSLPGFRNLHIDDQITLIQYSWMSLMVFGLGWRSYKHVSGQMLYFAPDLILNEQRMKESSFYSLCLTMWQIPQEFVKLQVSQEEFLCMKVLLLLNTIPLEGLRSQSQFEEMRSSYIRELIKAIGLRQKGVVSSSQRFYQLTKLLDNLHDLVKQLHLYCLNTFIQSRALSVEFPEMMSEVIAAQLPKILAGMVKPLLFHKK
Description: (§1) Measurement of the receptor binding affinity
(§2) The receptor binding affinity was determined by competitive binding of a specifically binding ^3H-labeled hormone (tracer) and the compound to be tested to receptors in the cytosol of animal target organs. Receptor saturation and reaction equilibrium were aimed at here. The following incubation conditions were chosen:
Progesterone receptor Uterus cytosol of the estradiol-primed rabbit, stored at −30° C.
Buffer for homogenization and incubation: TED buffer 20 mM tris/HCl, pH [sic]=7.4; 1 mM ethylenediamine tetracetate, 2 mM dithiothreitol) containing 250 mM sucrose.
Reference substance: progesterone.
(§3) After an incubation of receptor fraction, tracer and competitor for 18 h at 0-4° C., the bound and free steroid were separated by mixing in active carbon/dextran (1%/0.1%), centrifuging off and measuring the receptor-bound ^3H activity in the supernatant.

glucocorticoid receptor = target: T2, glucocorticoid receptor (Rattus norvegicus, UniProt P06536); assay: Receptor binding affinity, glucocorticoid receptor (competitive binding, thymus cytosol); settings: Dexamethasone = 100%; thymus cytosol of adrenalectomized rat; tracer 3H-dexamethasone
T2 construct: receptors in the cytosol of animal target organs; from tissue; host or cells: thymus cytosol of the adrenalectomized rat
T2 sequence (P06536 1-795): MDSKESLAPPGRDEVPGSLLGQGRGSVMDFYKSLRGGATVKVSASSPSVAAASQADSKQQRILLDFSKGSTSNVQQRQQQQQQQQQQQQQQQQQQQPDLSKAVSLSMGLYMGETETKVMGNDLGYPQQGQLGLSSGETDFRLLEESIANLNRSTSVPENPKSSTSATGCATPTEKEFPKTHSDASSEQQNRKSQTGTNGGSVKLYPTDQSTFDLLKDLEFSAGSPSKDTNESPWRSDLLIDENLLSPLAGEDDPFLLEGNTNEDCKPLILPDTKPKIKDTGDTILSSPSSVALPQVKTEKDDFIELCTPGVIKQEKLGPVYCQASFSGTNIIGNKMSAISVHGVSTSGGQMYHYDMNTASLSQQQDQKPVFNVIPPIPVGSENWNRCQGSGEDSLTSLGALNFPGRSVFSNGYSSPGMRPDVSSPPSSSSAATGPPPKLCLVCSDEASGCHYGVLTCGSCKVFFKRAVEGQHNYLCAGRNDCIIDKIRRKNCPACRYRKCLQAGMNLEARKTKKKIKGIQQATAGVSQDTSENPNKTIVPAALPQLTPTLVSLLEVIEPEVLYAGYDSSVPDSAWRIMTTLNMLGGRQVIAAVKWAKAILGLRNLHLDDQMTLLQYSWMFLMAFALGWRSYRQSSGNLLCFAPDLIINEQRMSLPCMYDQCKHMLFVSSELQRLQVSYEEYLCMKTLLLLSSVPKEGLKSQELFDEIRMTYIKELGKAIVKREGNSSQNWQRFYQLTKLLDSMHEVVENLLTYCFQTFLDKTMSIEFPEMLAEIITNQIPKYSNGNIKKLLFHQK
Description: as §1, §2
Glucocorticoid receptor: Thymus cytosol of the adrenalectomized rat. Thymi stored at −30° C.
Tracer: ^3H-dexamethasone, 20 nM.
Reference substance: dexamethasone.
as §3

[1] = test system: early pregnancy in the rat; assay: Inhibition of early pregnancy in the rat (early abortive action); assay type: in vivo; settings: s.c., day 5-7 of pregnancy
Description: Inhibition of early pregnancy in the rat Female rats weighing 180-200 g were mated in the proestrus stage. On detection of sperm in the vaginal region on the next day, this is set as day 1 (d=1) of the pregnancy. The rats are treated with test substance or vehicle using 0.2 ml of benzoyl benzoate/castor oil (1+4 v/v) subcutaneously from day 5 to day 7 (d5-d7); autopsy is carried oust painlessly on day d9. The uterus horns was [sic] dissected and examined for intact or damaged nidation sites.

pregnancy of guinea pigs = assay: Inhibition of late pregnancy in pregnant guinea pigs (abortive action); assay type: in vivo; settings: guinea pig; for Complete inhibition of pregnancy % / Complete inhibition of pregnancy N#/N (non-gravid/mated females): s.c., day 43-44 of pregnancy
Description: Inhibition of late pregnancy in pregnant guinea pigs
Pregnant guinea pigs are treated with test substances from day 43-44. Experimental animals were […] with the test substance in oily solution (0.2-2.0 ml of benzoyl benzoate/castor oil 1+4 v/v) 1× daily on day 43 and 44. Control animals were treated with vehicle. The pregnancy of the animals was monitored until day 50, in particular, the expulsion of fetuses and placentas was observed and recorded.

guinea pig in cycle = assay: Antiluteolysis test/ovulation inhibition test in the guinea pig in cycle; assay type: in vivo; settings: guinea pig
Description: Antiluteolysis test/ovulation inhibition test in the guinea pig in cycle: This test is based on the fact that progesterone at the end of the cycle stimulates uterine prostaglandin secretion. In the guinea pig, the inhibition of this function leads to a persistence of the corpora lutea (antiluteolysis). […] This test thus allows the therapy-relevant typing of progesterone antagonists as ? pure” or ? agonistic” substances. Guinea pigs are treated with the test substance on day 10 to day 17 of the cycle. The progesterone concentrations in the serum are determined on day 10 before substance treatment and on the following days until autopsy ([…]., Beier, […]., Crundel, M. et al. in Current Concepts in Fertility Regulation and Reproduction, (eds). Puri, C. P. and Van Look, P. F. H. (1994) 303-328).

| SMILES | Relative molar binding affinity RBA (%) to the progesterone receptor (progesterone receptor) | Relative molar binding affinity RBA (%) to the glucocorticoid receptor (glucocorticoid receptor) | Complete inhibition of pregnancy % ([1]; 3 mg/(animal × day)) | Complete inhibition of pregnancy N#/N (non-gravid/mated females) ([1]; 3 mg/(animal × day)) | Complete inhibition of pregnancy % ([1]; 1 mg/(animal × day)) | Complete inhibition of pregnancy N#/N (non-gravid/mated females) ([1]; 1 mg/(animal × day)) | other results |
| --- | --- | --- | --- | --- | --- | --- | --- |
| COCC1(OC)CCC2C3CCC4=CC(=O)CCC4=C3C(c3ccc(C=NOC(=O)SC)cc3)CC21C (stereo not drawn) [Example 1, 4-[17β-Methoxy-17α-(methoxymethyl)-3-oxoestra-4,9-dien-11β-yl]benzaldehyde 1-(E)-[O-(methylthio)carbonyl]oxime] | 159% | 49% | – | – | – | – | – |
| COC[C@@]1(O)CC[C@H]2[C@@H]3CCC4=CC(=O)CCC4=C3[C@@H](c3ccc(/C=N/OC(=O)SC)cc3)C[C@@]21C [Example 2, 4-[17β-Hydroxy-17α-(methoxymethyl)-3-oxoestra-4,9-dien-11β-yl]benzaldehyde 1-(E)-[O-(methylthio)carbonyl]oxime] | 185% | 52% | 0% | 0/4 | – | – | – |
| CCSC(=O)O/N=C/c1ccc([C@H]2C[C@@]3(C)[C@@H](CC[C@]3(COC)OC)[C@@H]3CCC4=CC(=O)CCC4=C32)cc1 [Example 3, 4-[17β-Methoxy-17α-(methoxymethyl)-3-oxoestra-4,9-dien-11β-yl]benzaldehyde 1-(E)-[O-(ethylthio)carbonyl]oxime] | 164% | 42% | 0% | 0/5 | 0% | 0/5 | Complete inhibition of pregnancy % (pregnancy of guinea pigs; 10 mg/animal/day): 0%; Complete inhibition of pregnancy N#/N (non-gravid/mated females) (pregnancy of guinea pigs; 10 mg/animal/day): 0/7; Complete inhibition of pregnancy % (pregnancy of guinea pigs; 30 mg/animal/day): 0%; Complete inhibition of pregnancy N#/N (non-gravid/mated females) (pregnancy of guinea pigs; 30 mg/animal/day): 0/7; Complete inhibition of pregnancy % (pregnancy of guinea pigs; 100 mg/animal/day): 0%; Complete inhibition of pregnancy N#/N (non-gravid/mated females) (pregnancy of guinea pigs; 100 mg/animal/day): 0/7; Interference with the pregnancy of guinea pigs (in words) (pregnancy of guinea pigs; very high doses): incapable even at very high doses of interfering with the pregnancy of guinea pigs; Complete inhibition of pregnancy % ([1]; 10 mg/(animal × day)): 20%; Complete inhibition of pregnancy N#/N (non-gravid/mated females) ([1]; 10 mg/(animal × day)): 1/5 |
| CCSC(=O)ON=Cc1ccc(C2CC3(C)C(CCC3(O)COC)C3CCC4=CC(=O)CCC4=C23)cc1 (stereo not drawn) [Example 4, 4-[17β-Hydroxy-17α-(methoxymethyl)-3-oxoestra-4,9-dien-11β-yl]benzaldehyde 1-(E)-[O-(ethylthio)carbonyl]oxime] | 44% | 53% | – | – | – | – | – |
| CCSC(=O)ON=Cc1ccc(C2CC3(C)C(CCC3(O)CN=[N+]=[N-])C3CCC4=CC(=O)CCC4=C23)cc1 (stereo not drawn) [Example 5, 4-[17β-Hydroxy-17α-(azidomethyl)-3-oxoestra-4,9-dien-11β-yl]benzaldehyde-1-(E)-[O-(ethylthio)carbonyl]oxime] | 77% | 20% | – | – | – | – | – |
| CCSC(=O)ON=Cc1ccc(C2CC3(C)C(CCC3(O)CCl)C3CCC4=CC(=O)CCC4=C23)cc1 (stereo not drawn) [Example 6, 4-[17β-Hydroxy-17α-(chloromethyl)-3-oxoestra-4,9-dien-11β-yl]benzaldehyde 1-(E)-[O-(ethylthio)carbonyl]oxime] | 64% | 22% | – | – | – | – | – |
| CCSC(=O)O/N=C/c1ccc([C@H]2C[C@@]3(C)[C@@H](CC[C@@]3(O)CC#N)[C@@H]3CCC4=CC(=O)CCC4=C32)cc1 [Example 7] | 42% | 2% | 0% | 0/5 | 0% | 0/5 | – |
| CCSC(=O)OC[C@]1(O)CC[C@H]2[C@@H]3CCC4=CC(=O)CCC4=C3[C@@H](c3ccc(/C=N/OC(=O)SCC)cc3)C[C@@]21C [Example 8, 4-{17β-Hydroxy-17α-[(ethylthiocarbonyloxy)methyl]3-oxoestra-4,9-dien-11β-yl]benzaldehyde 1-(E)-[O-(ethylthio)carbonyl]oxime] | 74% | 32% | – | – | – | – | – |
| COC[C@]1(OC)CC[C@H]2[C@@H]3CCC4=CC(=O)CCC4=C3[C@@H](c3ccc(/C=N/O)cc3)C[C@@]21C [J 867, 11β-[4-(hydroximinomethyl)phenyl]-17β-methoxy-17α-methoxymethyl-estra-4,9-dien-3-one, reference compound] | 302% | 77% | 100% | 5/5 | 100% | 5/5 | Complete inhibition of pregnancy % ([1]; 0.3 mg/(animal × day)): 0%; Complete inhibition of pregnancy N#/N (non-gravid/mated females) ([1]; 0.3 mg/(animal × day)): 0/5 |
| CC(=O)[C@H]1CC[C@H]2[C@@H]3CCC4=CC(=O)CC[C@]4(C)[C@H]3CC[C@]12C [progesterone] | – | – | – | – | – | – | Prostaglandin / PGFM levels in the blood (in words) (guinea pig in cycle): raised prostaglandin F metabolite levels |
